Results taken from a compilation of properties of binary mixtures (doi:10.1016/j.jct.2013.10.027).

Experiment: xn = mol fraction of the nth substance listed
Details: 101 kPa

CCCC[n+]1ccn(C)c1.O=S(=O)([N-]S(=O)(=O)C(F)(F)F)C(F)(F)F + OCC(F)(F)F
x2 = 0
Details	viscosity [mPa·s]
278.15 K	143
288.15 K	82.4
293.15 K	64.6
298.15 K	51.6
303.15 K	41.9
308.15 K	34.6
313.15 K	28.9
318.15 K	24.4
323.15 K	20.9
328.15 K	18
333.15 K	15.7

OCC(F)(F)F + CCCC[n+]1ccn(C)c1.O=S(=O)([N-]S(=O)(=O)C(F)(F)F)C(F)(F)F
viscosity [mPa·s]
Details	x1 = 0.0877	x1 = 0.2626	x1 = 0.4753	x1 = 0.6153	x1 = 0.7568	x1 = 0.8748	x1 = 1
278.15 K	111.4	–	–	–	–	5.37	3.28
283.15 K	84.8	51.2	24.63	14.14	7.74	4.62	2.81
288.15 K	66	40.93	20.36	11.94	6.67	4.02	2.42
293.15 K	52.3	33.18	17.03	–	5.8	3.53	2.11
298.15 K	42.28	–	14.48	8.81	–	3.12	1.84
303.15 K	34.67	22.96	12.43	7.68	4.45	2.78	1.62
308.15 K	28.83	19.43	10.77	6.75	3.94	2.49	1.43
313.15 K	24.27	16.63	–	5.99	3.53	2.25	1.27
318.15 K	20.67	14.38	–	5.35	3.18	2.04	1.13
323.15 K	17.78	12.54	7.38	4.81	2.88	1.85	–
328.15 K	15.43	11.03	6.6	4.34	2.62	1.69	0.925
333.15 K	13.51	–	5.94	3.95	2.4	1.54	0.824
